Tests used:
MDA-MB231 cell lines = assay: MTT cell viability assay (IC50); type: cell-based; conditions: Homo sapiens, MDA-MB-231, single dose of treatment, 10^−9 to 10^−4 M, 570 nm absorbance (FIG. 1), read-out: half-maximal inhibitory concentration (IC50)
Description: (§1) HCT 116 colon cancer and MDA-MB231 breast cancer cell lines are used in cell culture experiments.
Cells were treated with high-glucose DMEM medium (Biosera) supplemented with 10% FBS (Gibco) and 1× penicillin/streptomycin (Multicell). The assay was designed to contain 10,000 cells for each well of 24-well cell culture plates before being treated with inhibitors.
Compound of formula I was dissolved with DMSO as 20 mM stock. 24 hours later, the solution was diluted in DMEM with 10% FBS and final concentration of vehicle DMSO was 0.5% at maximum. Therefore, the vehicle group included 0.5% DMSO concentration in experiments. Intensive cultivation of cells causes a decrease in proliferation capacity.
The MTT cell viability assay was used to detect values of half-maximal inhibitory concentration (IC50). Different concentrations of compound of formula I ranging between 10^−9 to 10^−4 M were tested on MDA-MB231 cell lines with single dose of treatment. 570 nm absorbance values were recorded and IC50 values were calculated by dose response—inhibition curves and nonlinear regression analysis on Graphpad Prism 8 software.

[1] = test system: HCT 116 colon cancer and MDA-MB231 breast cancer cell lines; assay: MTT cell proliferation inhibition analysis; type: cell-based; conditions: 100 μM; MTT at 12 h, 24 h, 48 h and 72 h; ANOVA, p<0.001 (FIG. 2)
Description: as §1
For proliferation inhibition analysis, cells were seeded in 24 well plates at 1×10^4 cells/well cells overnight without drug treatment. During the cell proliferation experiments, we performed five days of treatment in each cell line and repeated the experiments three times to check each experiment. No significant difference in cell viability was observed after the third day. Therefore, cells with different drug concentrations were treated for two days. After 48 hours, MTT was applied to the cells and incubated at 37° C. for 4 hours, formazan was solubilized with DMSO (Sigma-Aldrich, St. Louis, USA) and absorbance was measured at 570 nm.
Molecule concentration was 100 μM, the lower concentrations were not shown. Vehicle represents the groups treated with only %0.5 DMSO and Untreated represents no molecule treated group. Molecule responses were evaluated by cell viability which is obtained by spectrophotometric analysis of cells upon MTT treatment at 12 h, 24 h, 48 h and 72 h. […] Statistical significance in graphs was determined by comparing each treatment group with DMSO control using ANOVA testing and significance is considered as p<0.001 (FIG. 2).

MDM2 protein = MDM2 protein (Homo sapiens, UniProt Q00987); conditions: compared with natural p53 peptide; cited from earlier work
Sequence of MDM2 protein (Q00987 whole entry, species assumed): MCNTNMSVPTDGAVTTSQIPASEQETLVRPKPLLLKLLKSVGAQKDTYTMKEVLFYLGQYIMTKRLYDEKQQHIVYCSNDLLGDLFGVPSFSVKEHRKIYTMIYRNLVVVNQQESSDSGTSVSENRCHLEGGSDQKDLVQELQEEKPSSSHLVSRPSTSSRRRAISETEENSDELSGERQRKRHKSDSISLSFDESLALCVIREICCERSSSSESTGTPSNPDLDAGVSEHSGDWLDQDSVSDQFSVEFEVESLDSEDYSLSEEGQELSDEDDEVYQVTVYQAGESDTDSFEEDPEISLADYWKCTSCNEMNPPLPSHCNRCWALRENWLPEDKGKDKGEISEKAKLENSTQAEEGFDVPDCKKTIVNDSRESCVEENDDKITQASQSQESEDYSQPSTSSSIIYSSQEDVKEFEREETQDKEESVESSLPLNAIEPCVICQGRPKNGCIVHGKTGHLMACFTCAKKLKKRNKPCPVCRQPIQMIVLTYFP

O=C(CSCc1ccccc1)NC(CC1CNc2ccccc21)C(=O)O (stereo not drawn) [compound of formula I]
IC50 (MDA-MB231 cell lines): 98 µM | cell viability (MTT) compared to vehicle and untreated groups [1]: statistically significant difference compared to vehicle and untreated groups

MI-319
binding affinity to MDM2 protein relative to a natural p53 peptide (MDM2 protein): 500 fold

— US20230063449A1, “DRG-MDM2-5 FOR USE AS A NOVEL MOUSE DOUBLE MINUTE 2 (MDM2) INHIBITOR” (BAHCESEHIR UNIVERSITESI, priority 2020, published 2023)
